Measured values: patent publication US11691980B2, “Liphagal analog and multi-targeted kinase inhibitor containing liphagal or analog thereof” (TOHOKU UNIVERSITY, priority 2017, dated 2023)

Assays:
Assay type in all cases: biochemical
SPHK1 = target: T1, SPHK1 (Homo sapiens, UniProt Q9NYA1); test: mobility shift assay
T1 construct: purchased Carna Biosciences

AurA = target: T2, AurA (Homo sapiens, UniProt O14965); test: mobility shift assay
T2 construct: purchased Carna Biosciences

MELK = target: T3, MELK (Homo sapiens, UniProt Q14680); test: mobility shift assay
T3 construct: purchased Carna Biosciences

AMFKα2/β1/γ1 = target: T4, AMFKα2/β1/γ1 (Homo sapiens, UniProt P54646); test: mobility shift assay
T4 construct: purchased Carna Biosciences

MAP3K5_Cascade = target: T5, MAP3K5_Cascade (Homo sapiens, UniProt Q99683); test: mobility shift assay
T5 construct: purchased Carna Biosciences

PIM 3 = target: T6, PIM 3 (Homo sapiens, UniProt Q86V86); test: mobility shift assay
T6 construct: purchased Carna Biosciences

MAP3K1_Cascade = target: T7, MAP3K1_Cascade (Homo sapiens, UniProt Q13233); test: mobility shift assay
T7 construct: purchased Carna Biosciences

GSK3α = target: T8, GSK3α (Homo sapiens, UniProt P49840); test: mobility shift assay
T8 construct: purchased Carna Biosciences

TSSK2 = target: T9, TSSK2 (Homo sapiens, UniProt Q96PF2); test: mobility shift assay
T9 construct: purchased Carna Biosciences

PLK2 = target: T10, PLK2 (Homo sapiens, UniProt Q9NYY3); test: IMAP Assay
T10 construct: purchased Carna Biosciences

BRAF(V600E)_Cascade = target: T11, BRAF(V600E)_Cascade (Homo sapiens, UniProt P15056, V600E); test: mobility shift assay
T11 construct: purchased Carna Biosciences

CDK9/CvcT1 = target: T12, CDK9/CvcT1 (Homo sapiens, UniProt P50750); test: mobility shift assay
T12 construct: purchased Carna Biosciences

PKACγ = target: T13, PKACγ (Homo sapiens, UniProt P22612); test: mobility shift assay
T13 construct: purchased Carna Biosciences

HER4 = target: T14, HER4 (Homo sapiens, UniProt Q15303); test: mobility shift assay
T14 construct: purchased Carna Biosciences

JAK1 = target: T15, JAK1 (Homo sapiens, UniProt P23458); test: mobility shift assay
T15 construct: purchased Carna Biosciences

RET(G691S) = target: T16, RET(G691S) (Homo sapiens, UniProt P07949, G691S); test: mobility shift assay
T16 construct: purchased Carna Biosciences

TAK1-TAB1_Cascade = target: T17, TAK1-TAB1_Cascade (Homo sapiens, UniProt O43318); test: mobility shift assay
T17 construct: purchased Carna Biosciences

TIE2 = target: T18, TIE2 (Homo sapiens, UniProt Q02763); test: mobility shift assay
T18 construct: purchased Carna Biosciences

ALK = target: T19, ALK (Homo sapiens, UniProt Q9UM73); test: mobility shift assay
T19 construct: purchased Carna Biosciences

CK2α2/β = target: T20, CK2α2/β (Homo sapiens, UniProt P19784); test: mobility shift assay
T20 construct: purchased Carna Biosciences

RSK4 = target: T21, RSK4 (Homo sapiens, UniProt Q9UK32); test: mobility shift assay
T21 construct: purchased Carna Biosciences

MAP2K7_Cascade = target: T22, MAP2K7_Cascade (Homo sapiens, UniProt O14733); test: mobility shift assay
T22 construct: purchased Carna Biosciences

MET(Y1235D) = target: T23, MET(Y1235D) (Homo sapiens, UniProt P08581, Y1235D); test: mobility shift assay
T23 construct: purchased Carna Biosciences

MAP2K1 Cascade = target: T24, MAP2K1 Cascade (Homo sapiens, UniProt Q02750); test: mobility shift assay
T24 construct: purchased Carna Biosciences

Haspin = target: T25, Haspin (Homo sapiens, UniProt Q8TF76); test: mobility shift assay
T25 construct: purchased Carna Biosciences

AKT1 = target: T26, AKT1 (Homo sapiens, UniProt P31749); test: mobility shift assay
T26 construct: purchased Carna Biosciences

PKD2 = target: T27, PKD2 (Homo sapiens, UniProt Q9BZL6); test: mobility shift assay
T27 construct: purchased Carna Biosciences

EPHA4 = target: T28, EPHA4 (Homo sapiens, UniProt P54764); test: mobility shift assay
T28 construct: purchased Carna Biosciences

PKCδ = target: T29, PKCδ (Homo sapiens, UniProt Q05655); test: mobility shift assay
T29 construct: purchased Carna Biosciences

HGK = target: T30, HGK (Homo sapiens, UniProt O95819); test: mobility shift assay
T30 construct: purchased Carna Biosciences

YES = target: T31, YES (Homo sapiens, UniProt P07947); test: mobility shift assay
T31 construct: purchased Carna Biosciences

PAK1 = target: T32, PAK1 (Homo sapiens, UniProt Q13153); test: mobility shift assay
T32 construct: purchased Carna Biosciences

EPHA1 = target: T33, EPHA1 (Homo sapiens, UniProt P21709); test: mobility shift assay
T33 construct: purchased Carna Biosciences

ALK(C1156Y) = target: T34, ALK(C1156Y) (Homo sapiens, UniProt Q9UM73, C1156Y); test: mobility shift assay
T34 construct: purchased Carna Biosciences

CaMK2α = target: T35, CaMK2α (Homo sapiens, UniProt Q9UQM7); test: mobility shift assay
T35 construct: purchased Carna Biosciences

KDR = target: T36, KDR (Homo sapiens, UniProt P35968); test: mobility shift assay
T36 construct: purchased Carna Biosciences

SkMLCK = target: T37, SkMLCK (Homo sapiens, UniProt Q9H1R3); test: mobility shift assay
T37 construct: purchased Carna Biosciences

FGFR3(K650M) = target: T38, FGFR3(K650M) (Homo sapiens, UniProt P22607, K650M); test: mobility shift assay
T38 construct: purchased Carna Biosciences

AXL = target: T39, AXL (Homo sapiens, UniProt P30530); test: mobility shift assay
T39 construct: purchased Carna Biosciences

EGFR = target: T40, EGFR (Homo sapiens, UniProt P00533); test: mobility shift assay
T40 construct: purchased Carna Biosciences

PKCζ = target: T41, PKCζ (Homo sapiens, UniProt Q05513); test: mobility shift assay
T41 construct: purchased Carna Biosciences

CHK1 = target: T42, CHK1 (Homo sapiens, UniProt O14757); test: mobility shift assay
T42 construct: purchased Carna Biosciences

T31 sequence (P07947 whole entry): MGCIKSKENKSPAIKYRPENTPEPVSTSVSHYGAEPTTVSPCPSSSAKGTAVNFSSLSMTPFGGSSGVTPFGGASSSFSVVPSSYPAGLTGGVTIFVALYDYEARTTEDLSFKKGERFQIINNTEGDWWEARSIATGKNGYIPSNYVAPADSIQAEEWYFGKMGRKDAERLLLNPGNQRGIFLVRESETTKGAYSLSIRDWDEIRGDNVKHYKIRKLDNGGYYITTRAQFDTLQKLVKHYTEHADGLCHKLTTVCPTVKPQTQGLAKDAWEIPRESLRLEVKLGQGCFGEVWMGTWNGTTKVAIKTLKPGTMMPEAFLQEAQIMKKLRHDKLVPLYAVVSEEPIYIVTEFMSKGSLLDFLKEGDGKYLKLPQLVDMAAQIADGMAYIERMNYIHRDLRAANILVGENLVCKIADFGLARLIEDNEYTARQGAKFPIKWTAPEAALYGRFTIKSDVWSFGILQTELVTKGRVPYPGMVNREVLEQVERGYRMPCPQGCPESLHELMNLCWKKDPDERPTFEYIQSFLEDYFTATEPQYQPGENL
T22 sequence (O14733 whole entry): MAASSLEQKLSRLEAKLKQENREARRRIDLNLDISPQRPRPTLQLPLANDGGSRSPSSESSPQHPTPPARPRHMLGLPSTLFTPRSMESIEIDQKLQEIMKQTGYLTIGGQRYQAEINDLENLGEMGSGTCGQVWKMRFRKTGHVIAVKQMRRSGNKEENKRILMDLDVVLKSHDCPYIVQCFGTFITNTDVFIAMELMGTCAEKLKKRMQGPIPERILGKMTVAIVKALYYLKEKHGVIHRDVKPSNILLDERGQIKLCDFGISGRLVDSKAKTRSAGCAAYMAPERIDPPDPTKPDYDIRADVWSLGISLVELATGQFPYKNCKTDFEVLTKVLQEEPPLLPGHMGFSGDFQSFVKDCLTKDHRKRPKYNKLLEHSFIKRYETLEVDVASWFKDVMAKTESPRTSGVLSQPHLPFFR
T12 sequence (P50750 whole entry): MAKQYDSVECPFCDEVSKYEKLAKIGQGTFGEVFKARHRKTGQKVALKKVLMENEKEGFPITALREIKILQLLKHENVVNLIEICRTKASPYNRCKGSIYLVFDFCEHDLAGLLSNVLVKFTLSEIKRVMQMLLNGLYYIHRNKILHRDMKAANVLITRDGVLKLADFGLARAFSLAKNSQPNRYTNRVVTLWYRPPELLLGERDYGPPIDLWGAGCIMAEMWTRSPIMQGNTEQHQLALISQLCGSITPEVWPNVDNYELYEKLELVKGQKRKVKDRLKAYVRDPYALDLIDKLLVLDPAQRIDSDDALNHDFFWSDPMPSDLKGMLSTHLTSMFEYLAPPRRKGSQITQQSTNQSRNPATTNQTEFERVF
T12 sequence (O60563 whole entry partner): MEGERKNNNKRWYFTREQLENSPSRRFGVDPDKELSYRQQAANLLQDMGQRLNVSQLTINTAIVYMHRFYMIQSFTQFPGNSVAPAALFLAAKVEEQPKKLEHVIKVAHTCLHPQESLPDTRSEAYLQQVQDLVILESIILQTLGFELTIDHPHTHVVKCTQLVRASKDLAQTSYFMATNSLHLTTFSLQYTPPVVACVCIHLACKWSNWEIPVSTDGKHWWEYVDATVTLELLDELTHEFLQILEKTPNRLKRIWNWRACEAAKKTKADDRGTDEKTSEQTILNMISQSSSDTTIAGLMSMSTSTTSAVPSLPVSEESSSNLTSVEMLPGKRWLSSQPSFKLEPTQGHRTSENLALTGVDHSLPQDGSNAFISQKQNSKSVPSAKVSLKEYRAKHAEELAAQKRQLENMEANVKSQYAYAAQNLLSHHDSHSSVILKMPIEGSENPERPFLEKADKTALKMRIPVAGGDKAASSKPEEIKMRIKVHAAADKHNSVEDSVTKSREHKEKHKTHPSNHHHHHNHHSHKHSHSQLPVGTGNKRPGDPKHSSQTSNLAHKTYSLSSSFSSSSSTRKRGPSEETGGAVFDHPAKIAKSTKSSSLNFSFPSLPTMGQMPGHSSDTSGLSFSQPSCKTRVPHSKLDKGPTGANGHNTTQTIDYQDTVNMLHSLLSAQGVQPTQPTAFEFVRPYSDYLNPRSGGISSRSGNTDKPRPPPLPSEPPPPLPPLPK
T8 sequence (P49840 whole entry): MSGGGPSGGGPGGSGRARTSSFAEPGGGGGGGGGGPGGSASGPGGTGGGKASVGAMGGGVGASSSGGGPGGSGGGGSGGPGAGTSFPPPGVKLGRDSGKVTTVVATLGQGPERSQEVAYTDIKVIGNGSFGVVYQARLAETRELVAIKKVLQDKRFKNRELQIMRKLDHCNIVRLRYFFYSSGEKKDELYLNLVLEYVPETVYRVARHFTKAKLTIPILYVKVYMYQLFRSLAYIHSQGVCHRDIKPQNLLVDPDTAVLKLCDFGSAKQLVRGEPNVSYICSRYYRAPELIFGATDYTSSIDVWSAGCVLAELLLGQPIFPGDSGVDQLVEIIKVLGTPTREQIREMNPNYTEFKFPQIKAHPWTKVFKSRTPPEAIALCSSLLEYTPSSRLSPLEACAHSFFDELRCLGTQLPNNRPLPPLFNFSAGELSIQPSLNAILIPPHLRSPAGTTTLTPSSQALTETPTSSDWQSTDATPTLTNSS
T41 sequence (Q05513 whole entry): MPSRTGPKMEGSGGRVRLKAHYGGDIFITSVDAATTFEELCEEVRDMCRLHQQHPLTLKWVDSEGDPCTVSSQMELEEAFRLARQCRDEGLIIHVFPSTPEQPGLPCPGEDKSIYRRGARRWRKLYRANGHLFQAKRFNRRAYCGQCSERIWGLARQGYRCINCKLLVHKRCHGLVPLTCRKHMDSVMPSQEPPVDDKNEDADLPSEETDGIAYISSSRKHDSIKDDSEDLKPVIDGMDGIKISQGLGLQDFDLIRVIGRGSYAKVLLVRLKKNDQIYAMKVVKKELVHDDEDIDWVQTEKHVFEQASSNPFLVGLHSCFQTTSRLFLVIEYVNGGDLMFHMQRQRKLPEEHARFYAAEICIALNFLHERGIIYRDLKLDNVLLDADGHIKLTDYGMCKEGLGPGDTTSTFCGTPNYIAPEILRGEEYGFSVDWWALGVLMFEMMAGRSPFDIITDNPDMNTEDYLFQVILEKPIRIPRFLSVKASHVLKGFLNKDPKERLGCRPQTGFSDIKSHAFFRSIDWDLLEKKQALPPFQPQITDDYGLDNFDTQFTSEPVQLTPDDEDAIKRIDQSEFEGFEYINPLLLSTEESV
T9 sequence (Q96PF2 whole entry): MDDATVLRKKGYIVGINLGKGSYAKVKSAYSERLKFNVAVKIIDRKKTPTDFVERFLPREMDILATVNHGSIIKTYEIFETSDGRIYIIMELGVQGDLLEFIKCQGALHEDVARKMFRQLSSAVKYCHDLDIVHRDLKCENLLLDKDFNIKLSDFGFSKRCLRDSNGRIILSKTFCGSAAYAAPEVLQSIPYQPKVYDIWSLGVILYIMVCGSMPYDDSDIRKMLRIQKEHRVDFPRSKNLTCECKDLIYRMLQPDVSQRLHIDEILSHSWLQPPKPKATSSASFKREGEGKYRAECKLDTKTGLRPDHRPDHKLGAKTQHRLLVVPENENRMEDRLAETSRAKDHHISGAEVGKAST
T40 sequence (P00533 25-1210): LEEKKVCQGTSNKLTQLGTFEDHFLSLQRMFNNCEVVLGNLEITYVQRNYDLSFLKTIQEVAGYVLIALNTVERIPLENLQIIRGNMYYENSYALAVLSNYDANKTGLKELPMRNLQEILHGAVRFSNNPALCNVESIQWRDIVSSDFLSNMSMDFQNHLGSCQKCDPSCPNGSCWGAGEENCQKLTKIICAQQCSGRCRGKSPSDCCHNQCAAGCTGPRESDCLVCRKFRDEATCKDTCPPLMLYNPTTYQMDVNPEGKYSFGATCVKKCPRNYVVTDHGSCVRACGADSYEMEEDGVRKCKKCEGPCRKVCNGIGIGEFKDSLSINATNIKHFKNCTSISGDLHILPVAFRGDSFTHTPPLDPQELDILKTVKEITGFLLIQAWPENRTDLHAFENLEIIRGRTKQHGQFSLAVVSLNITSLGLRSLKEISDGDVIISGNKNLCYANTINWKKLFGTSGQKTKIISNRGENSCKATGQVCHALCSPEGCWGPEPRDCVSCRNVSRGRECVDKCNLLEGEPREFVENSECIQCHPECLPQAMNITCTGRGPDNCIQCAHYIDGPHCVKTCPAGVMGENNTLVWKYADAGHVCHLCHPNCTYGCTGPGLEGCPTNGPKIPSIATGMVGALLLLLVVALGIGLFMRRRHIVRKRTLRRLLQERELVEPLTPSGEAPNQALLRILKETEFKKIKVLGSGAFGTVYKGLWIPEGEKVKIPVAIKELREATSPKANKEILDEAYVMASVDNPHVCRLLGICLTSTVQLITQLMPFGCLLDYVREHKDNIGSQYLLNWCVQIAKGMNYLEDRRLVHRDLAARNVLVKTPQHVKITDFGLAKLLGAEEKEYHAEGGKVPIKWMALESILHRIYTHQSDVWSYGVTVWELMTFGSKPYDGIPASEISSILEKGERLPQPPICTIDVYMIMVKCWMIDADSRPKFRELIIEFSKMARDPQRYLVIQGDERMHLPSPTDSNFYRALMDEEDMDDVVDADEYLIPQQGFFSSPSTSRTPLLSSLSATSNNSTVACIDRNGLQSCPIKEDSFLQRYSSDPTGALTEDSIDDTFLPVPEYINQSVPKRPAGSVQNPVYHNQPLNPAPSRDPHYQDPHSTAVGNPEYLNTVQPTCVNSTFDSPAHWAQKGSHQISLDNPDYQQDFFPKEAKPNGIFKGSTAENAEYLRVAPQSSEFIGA

C[C@@H]1CC[C@H]2C(C)(C)CCC[C@]2(C)c2c1oc1c(C=O)c(O)c(O)cc21 [LG-1, liphagal]
inhibition at 10 µM (SPHK1): 59.8%
inhibition at 10 µM (AurA): 53.9%
inhibition at 10 µM (MELK): 49.2%
inhibition at 10 µM (AMFKα2/β1/γ1): 44.1%
inhibition at 10 µM (MAP3K5_Cascade): 38%
inhibition at 10 µM (PIM 3): 28.9%
inhibition at 10 µM (MAP3K1_Cascade): 26.4%
inhibition at 10 µM (GSK3α): 23.1%
inhibition at 10 µM (TSSK2): 21%
inhibition at 10 µM (PLK2): 19.7%
inhibition at 10 µM (BRAF(V600E)_Cascade): 19.5%
inhibition at 10 µM (CDK9/CvcT1): 18.8%
inhibition at 10 µM (PKACγ): 18.7%
inhibition at 10 µM (HER4): 17.9%
inhibition at 10 µM (JAK1): 14.9%
inhibition at 10 µM (RET(G691S)): 14.8%
inhibition at 10 µM (TAK1-TAB1_Cascade): 13.9%
inhibition at 10 µM (TIE2): 11.7%
inhibition at 10 µM (ALK): 9%
inhibition at 10 µM (CK2α2/β): 9%
inhibition at 10 µM (RSK4): 7.4%
inhibition at 10 µM (MAP2K7_Cascade): 5.5%
inhibition at 10 µM (MET(Y1235D)): 5%
inhibition at 10 µM (MAP2K1 Cascade): 4.1%
inhibition at 10 µM (Haspin): 3.3%
inhibition at 10 µM (AKT1): 3.1%
inhibition at 10 µM (PKD2): 2.8%
inhibition at 10 µM (EPHA4): 2%
inhibition at 10 µM (PKCδ): 1.6%
inhibition at 10 µM (HGK): 1.2%
inhibition at 10 µM (YES): 0.7%
inhibition at 10 µM (PAK1): 0.5%
inhibition at 10 µM (EPHA1): 0.5%
inhibition at 10 µM (ALK(C1156Y)): 0.2%
inhibition at 10 µM (CaMK2α): -0.5%
inhibition at 10 µM (KDR): -1.1%
inhibition at 10 µM (SkMLCK): -1.3%
inhibition at 10 µM (FGFR3(K650M)): -3.6%
inhibition at 10 µM (AXL): -4.2%
inhibition at 10 µM (EGFR): -4.4%
inhibition at 10 µM (PKCζ): -7.2%
inhibition at 10 µM (CHK1): -15.3%
